Entries after “also recorded” stand apart in the source; their conditions may differ.
Columns and labels:
VSMCs [1] = assay: VSMC apoptosis assay (ELISA, cleaved caspase-3 immunostaining, nuclear fragmentation); format: cell-based, human; details: 10^−7 M, 48 h, vs control
Protocol: (§1) VSMCs were grown in 96-well plates or 8-well chamber slides and incubated with 10^−7 M of MPA (Sigma-Aldrich) or ETO (Organon) or P4 (Sigma-Aldrich) or vehicle±rCCL2 (R&D Systems)±STAT1 inhibitor, 5′-methyl-thioadenosine (MTA; EMD Millipore) (19) for 48 or 72 h. VSMCs were then analyzed for apoptosis by an ELISA based apoptosis kit (Roche) or cleaved-caspase 3 immunostaining. VSMC proliferation was measured by BrdU incorporation Kit (Cell Signaling). (See further details in SI Materials and Methods).
This assay detects late-stage apoptosis by quantifying specific mono- and oligonucleosomes in the cytoplasmic fraction of cell lysates using mouse monoclonal antibodies directed against DNA and histones. In late-stage apoptosis (following nuclear fragmentation), cell cytoplasm contains mono- and oligonucleosomes, absent in normal (nonapoptotic) cells. The nucleosomes contained in the sample bind via their histone component to the immobilized antihistone antibody. Anti-DNA peroxidase reacts with the DNA part in the nucleosome. After removal of unbound peroxidase conjugate, the amount of peroxidase retained in the immunocomplex is detected by measuring colorimetric reaction.
Apoptosis index was determined in a second set of experiments. VSMC cultures (10,000 cells per wells) were incubated in 96-well plates with the treatments described above, at room temperature. Briefly, at the end of 48- or 72-h incubation periods, cells were washed three times in ice-cold PBS and cell lysate prepared by incubating each well in 200-μL lysis buffer for 30 min, followed by centrifugation at 200×g for 10 min. Duplicate 20-μL supernatant of cytoplasmic fractions from each treatment were carefully pipetted into streptavidin-coated microplates. A 20-μL VSMC culture supernatant devoid of cell fractions was used as a negative control, and 1-, 5-, 10-, and 20-μL supernatants containing camptothecin-induced apoptotic cell fractions were used as positive controls (ELISA based cell death detection kit^plus, Roche Applied Science). Incubation buffer was used as background control (Roche Applied Science). Then, each well was brought to 100 μL by adding immunoreagent (peroxidase-conjugated anti-DNA complex) and incubated by gentle shaking (300 rpm) for 2 h. […] The immunoreaction was stopped with 100 μL ABTS Stop Solution and measured at 405 nm against 100 μL ABTS solution+100 μL ABTS stop solution as a blank (reference wavelength 490 nm) using Spectra Max190 microplate reader (Molecular Devices). […]
The first set of eight-well chamber slides was processed for cleaved caspase-3 immunocytochemistry. […] Cleaved caspase-3 immunoreactivity in groups was then evaluated as described for αSMA in the HSOCRE section. […]

VSMCs [2] = assay: VSMC proliferation assay by BrdU incorporation; format: cell-based, human; details: 10^−7 M, 48-h treatment, mean±SEM; control 0.81±0.03
Protocol: as §1
VSMCs were thawed and cultured in T-75 cell culture flasks in medium 231 (M231; Life Technologies) with smooth muscle growth supplement (5% FBS; 2 ng/mL human basic fibroblast growth factor, 0.5 ng/mL human epidermal growth factor, 5 ng/mL heparin, 0.2 μg/mL insulin and 5 μg/mL BSA; Life Technologies) with 100 U/mL penicillin, 100 μg/mL streptomycin, and 0.25 μg/mL fungizone. Confluent VSMCs were washed twice with 1×PBS to remove residual serum, and then passaged (5,000 cells per well) in 96-well plates and incubated in parallel in M231 with 1% charcoal striped FBS with 0.1% ethanol (vehicle, control), 10^−7 M MPA (Sigma-Aldrich), 10^−7 M ETO (Organon), or 10^−7 M P4 (Sigma-Aldrich)±rCCL2 (monocyte chemotactic protein-1; R&D Systems)±STAT1 inhibitor, 5′-methyl-thioadenosine (MTA; EMD Millipore) for 48 or 72 h.
BrdU (Cell Signaling) 1× in 100-μL M231 was added to each well during the final 24 h of incubation. At the end of 48- or 72-h incubation period, medium was removed and the wells washed twice with ice-cold PBS. VSMC proliferation was measured using BrdU cell proliferation Kit (Cell Signaling) at room temperature. Cells was incubated in 100 μL per well of the fixing/denaturing solution for 30 min, and then replaced by 100 μL per well BrdU detection antibody solution for 1 h. Following three rinses with wash buffer, plates were incubated in HRP-conjugated secondary antibody (100 μL per well) for 30 min. After three additional rinses with wash buffer, tetramethylbenzidine substrate solution (100 μL per well) was added for 20 min and the reaction stopped by adding 100 μL per well STOP solution. Absorbance was measured at 450 nm using Spectra Max190 microplate reader (Molecular Devices) to detect BrdU incorporation in each well.

Row | Compound | apoptotic index (VSMCs [1]) | BrdU incorporation (VSMCs [2]) | apoptotic index (VSMCs [1]; listed as WA)
1 | C#C[C@]1(O)CC[C@H]2[C@@H]3CCC4=CC(=O)CC[C@@H]4[C@H]3C(=C)C[C@@]21CC [ETO, etonogestrel] | unaffected; also recorded: did not affect | 0.40±0.03 | 
2 | CC(=O)O[C@]1(C(C)=O)CC[C@H]2[C@@H]3C[C@H](C)C4=CC(=O)CC[C@]4(C)[C@H]3CC[C@@]21C [MPA, medroxyprogesterone acetate] | did not affect | 0.31±0.02 | unaffected
3 | CC(=O)[C@H]1CC[C@H]2[C@@H]3CCC4=CC(=O)CC[C@]4(C)[C@H]3CC[C@]12C [P4, progesterone] | unaffected | 0.71±0.05 | 

Source: US20180078615A1, “USE OF CCL2 TO INHIBIT ABNORMAL UTERINE BLEEDING” (UNIVERSITY OF SOUTH FLORIDA, priority 2015, published 2018)
